The record followed here is patent publication US20250235499A1, “ANTI-OVARIAN CANCER PHARMACEUTICAL COMPOSITION AND ACTION TARGET THEREOF” (Zhejiang Chinese Medical University, priority 2024, published 2025).

SMILES strings stand for the structures.

For the assay, the system named is CDK4, Cyclin D1, P21 in SKOV3 cells. Nature of the assay: Expression of cell cycle related proteins in cells. Type of assay: cell-based, human.
Where [1] appears, read: SKOV3 OE-MCM2 cells (MCM2 overexpression), vs OE-MCM2 group.
[2] abbreviates: SKOV3 OE-NC cells (empty vector), vs OE-NC group.
Setting [3] is: SKOV3 sh-MCM2 cells (MCM2 knockdown), vs sh-MCM2 group.
Setting [4] is: SKOV3 sh-NC cells (empty vector), vs sh-NC group.

In the case of `COc1ccc(-c2coc3cc(O)ccc3c2=O)cc1O` [CA, calycosin], the “expression of CDK4” value is given as “no significant change” under setting [1], “significantly decreased” under setting [2], “no significant change” under setting [3] and “significantly decreased” under setting [4]. In addition, the “expression of Cyclin D1” value reads like this: under setting [1], “no significant change”; under setting [2], “significantly decreased”; under setting [3], “no significant change”; under setting [4], “significantly decreased”. The “expression of P21” value under setting [1] is “no significant change”, the “expression of P21” value under setting [2] is given as “significantly increased”, the “expression of P21” value under setting [3] is “no significant change” and the “expression of P21” value under setting [4] is reported as “significantly increased”.
